# US6737383B1, “Herbicidal oxadiazolidines” (priority 1999, dated 2004)
# What was measured:
# sugar beet = experiment: Test B pre/postemergence sugar beet; assay type: in vivo, Beta vulgaris
# Procedure, shortened: (§1)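 Test chemicals in a non-phytotoxic solvent mixture with surfactant were sprayed preemergence onto planted seeds and postemergence onto plants 2 to 18 cm tall (1- to 4-leaf stage). After twelve to sixteen days in a greenhouse, injury was visually rated against untreated controls from 0 (no effect) to 10 (complete control).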
# bamyardgrass = experiment: Test B flood test barnyardgrass; assay type: in vivo, Echinochloa crus-galli; conditions: for Plant response rating, Barnyardgrass: scale 0 to 10, 0 is no effect, 10 is complete control; for Barnyardgrass plant response rating: scale of 0 to 10 where 0 is no effect and 10 is complete control
# Procedure, shortened: (§2)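 Each value is a visual injury score relative to controls, with 10 meaning complete control and 0 no effect. Evaluation took place twelve to sixteen days after the 2-leaf-stage plants were treated and kept in the greenhouse.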
# rape = experiment: Test B pre/postemergence rape; assay type: in vivo, Brassica napus
# Procedure, shortened: as §1
# purple nutsedge = experiment: Test B pre/postemergence purple nutsedge; assay type: in vivo, Cyperus rotundus
# Procedure, shortened: as §1
# wild oat = experiment: Test B pre/postemergence wild oat; assay type: in vivo, Avena fatua
# Procedure, shortened: as §1
# rice = experiment: Test B flood test rice; assay type: in vivo, Oryza sativa
# Procedure, shortened: as §2
# smallflower flatsedge = experiment: Test B flood test smallflower flatsedge; assay type: in vivo, Cyperus difformis
# Procedure, shortened: as §2
# wheat = experiment: Test B pre/postemergence wheat; assay type: in vivo, Triticum aestivum
# Procedure, shortened: as §1
# soybean = experiment: Test B pre/postemergence soybean; assay type: in vivo, Glycine max
# Procedure, shortened: as §1
# pigweed = experiment: Test B pre/postemergence pigweed; assay type: in vivo, Amaranthus retroflexus
# Procedure, shortened: as §1
# duck salad = experiment: Test B flood test duck salad; assay type: in vivo, Heteranthera limosa; conditions: for Plant response rating, Ducksalad: scale 0 to 10, 0 is no effect, 10 is complete control; for Ducksalad plant response rating: scale of 0 to 10 where 0 is no effect and 10 is complete control
# Procedure, shortened: as §2
# blackgrass = experiment: Test B pre/postemergence blackgrass; assay type: in vivo, Alopecurus myosuroides
# Procedure, shortened: as §1
# velvetleaf = experiment: Test B pre/postemergence velvetleaf; assay type: in vivo, Abutilon theophrasti
# Procedure, shortened: as §1
# morningglory = experiment: Test B pre/postemergence morningglory; assay type: in vivo, Ipomoea hederacea
# Procedure, shortened: as §1
# corn = experiment: Test B pre/postemergence corn; assay type: in vivo, Zea mays
# Procedure, shortened: as §1
# crabgrass = experiment: Test B pre/postemergence crabgrass; assay type: in vivo, Digitaria sanguinalis
# Procedure, shortened: as §1
# giant foxtail = experiment: Test B pre/postemergence giant foxtail; assay type: in vivo, Setaria faberii
# Procedure, shortened: as §1
# surinam grass = experiment: Test B pre/postemergence surinam grass; assay type: in vivo, Brachiaria decumbens
# Procedure, shortened: as §1
# cocklebur = experiment: Test B pre/postemergence cocklebur; assay type: in vivo, Xanthium strumarium
# Procedure, shortened: as §1
# [1] = Postemergence, Rate 250 g/ha, scale 0 to 10, 0 is no effect, 10 is complete control
# [2] = Postemergence, Rate 500 g/ha, scale of 0 to 10 where 0 is no effect and 10 is complete control
# [3] = Preemergence, Rate 62 g/ha, scale 0 to 10 (0 no effect, 10 complete control)
# [4] = Preemergence, Rate 125 g/ha, scale of 0 to 10 where 0 is no effect and 10 is complete control
# [5] = Preemergence, Rate 250 g/ha, scale 0 to 10, 0 is no effect, 10 is complete control
# [6] = Preemergence, Rate 500 g/ha, scale 0 to 10, 0 is no effect, 10 is complete control
# [7] = Postemergence (flood test), Rate 125 g/ha
# [8] = Postemergence section (flood test species), Rate 500 g/ha
# [9] = Rate 62 g/ha, Postemergence (flood test species)
# [10] = flood test species, listed under Postemergence, Rate 250 g/ha
# [11] = Postemergence section (flood test species), Rate 500 g/ha, scale of 0 to 10 where 0 is no effect and 10 is complete control
# [12] = flood test species, listed under Postemergence, Rate 250 g/ha, scale 0 to 10, 0 is no effect, 10 is complete control
# [13] = Postemergence, Rate 125 g/ha, scale 0 to 10, 0 is no effect, 10 is complete control
# [14] = Preemergence, Rate 250 g/ha, scale of 0 to 10 where 0 is no effect and 10 is complete control
# [15] = Rate 62 g/ha, Postemergence, scale of 0 to 10 where 0 is no effect and 10 is complete control
compound,measurement,setting,value
C=C(C)CCn1c(=O)on(C(=O)N(c2ccccc2)C(C)C)c1=O [Compound 418],"Plant response rating, Sugarbeets",sugar beet; [1],0
same,Sugarbeets plant response rating,sugar beet; [2],0
same,"Plant response rating, Sugarbeets",sugar beet; [3],0
same,"Plant response rating, Sugarbeets",sugar beet; [4],2
same,Sugarbeets plant response rating,sugar beet; [5],2
same,Sugarbeets plant response rating,sugar beet; [6],2
same,"Plant response rating, Barnyardgrass",bamyardgrass; [7],0
same,Barnyardgrass plant response rating,bamyardgrass; [8],0
same,Barnyardgrass plant response rating,bamyardgrass; [9],0
same,"Plant response rating, Barnyardgrass",bamyardgrass; [10],0
same,"Plant response rating, Rape",rape; [1],0
same,Rape plant response rating,rape; [2],0
same,"Plant response rating, Rape",rape; [3],0
same,"Plant response rating, Rape",rape; [4],0
same,Rape plant response rating,rape; [5],0
same,Rape plant response rating,rape; [6],9
same,"Plant response rating, Nutsedge",purple nutsedge; [1],0
same,Nutsedge plant response rating,purple nutsedge; [2],0
same,"Plant response rating, Nutsedge",purple nutsedge; [3],0
same,"Plant response rating, Nutsedge",purple nutsedge; [4],0
same,Nutsedge plant response rating,purple nutsedge; [5],0
same,Nutsedge plant response rating,purple nutsedge; [6],0
same,Wild oats plant response rating,wild oat; [2],3
same,"Plant response rating, Wild oats",wild oat; [3],0
same,"Plant response rating, Wild oats",wild oat; [4],0
same,Wild oats plant response rating,wild oat; [5],0
same,Wild oats plant response rating,wild oat; [6],0
same,Rice plant response rating,rice; [11],0
same,"Plant response rating, Rice",rice; [12],0
same,S. Flatsedge plant response rating,smallflower flatsedge; [11],4
same,"Plant response rating, S. Flatsedge",smallflower flatsedge; [12],4
same,Wheat plant response rating,wheat; [2],0
same,"Plant response rating, Wheat",wheat; [3],0
same,"Plant response rating, Wheat",wheat; [4],0
same,Wheat plant response rating,wheat; [5],0
same,Wheat plant response rating,wheat; [6],2
same,"Plant response rating, Soybean",soybean; [1],4
same,Soybean plant response rating,soybean; [2],6
same,"Plant response rating, Soybean",soybean; [3],0
same,"Plant response rating, Soybean",soybean; [4],0
same,Soybean plant response rating,soybean; [5],0
same,Soybean plant response rating,soybean; [6],0
same,"Plant response rating, Redroot pigweed",pigweed; [1],0
same,Redroot pigweed plant response rating,pigweed; [2],0
same,"Plant response rating, Redroot pigweed",pigweed; [3],2
same,"Plant response rating, Redroot pigweed",pigweed; [4],3
same,Redroot pigweed plant response rating,pigweed; [5],8
same,Redroot pigweed plant response rating,pigweed; [6],8
same,"Plant response rating, Ducksalad",duck salad; [7],0
same,Ducksalad plant response rating,duck salad; [8],2
same,Ducksalad plant response rating,duck salad; [9],0
same,"Plant response rating, Ducksalad",duck salad; [10],2
same,"Plant response rating, Blackgrass",blackgrass; [13],4
same,"Plant response rating, Blackgrass",blackgrass; [1],4
same,Blackgrass plant response rating,blackgrass; [2],6
same,"Plant response rating, Blackgrass",blackgrass; [3],4
same,"Plant response rating, Blackgrass",blackgrass; [4],4
same,Blackgrass plant response rating,blackgrass; [14],7
same,Blackgrass plant response rating,blackgrass; [6],0
same,Blackgrass plant response rating,blackgrass; [15],2
same,"Plant response rating, Velvetleaf",velvetleaf; [1],0
same,Velvetleaf plant response rating,velvetleaf; [2],0
same,"Plant response rating, Velvetleaf",velvetleaf; [3],0
same,"Plant response rating, Velvetleaf",velvetleaf; [4],3
same,Velvetleaf plant response rating,velvetleaf; [5],5
same,Velvetleaf plant response rating,velvetleaf; [6],6
same,"Plant response rating, Morningglory",morningglory; [1],8
same,Morningglory plant response rating,morningglory; [2],10
same,"Plant response rating, Morningglory",morningglory; [3],0
same,"Plant response rating, Morningglory",morningglory; [4],0
same,Morningglory plant response rating,morningglory; [5],0
same,Morningglory plant response rating,morningglory; [6],0
same,"Plant response rating, Corn",corn; [13],0
same,"Plant response rating, Corn",corn; [1],0
same,Corn plant response rating,corn; [2],0
same,"Plant response rating, Corn",corn; [3],0
same,"Plant response rating, Corn",corn; [4],0
same,Corn plant response rating,corn; [5],2
same,Corn plant response rating,corn; [15],0
same,"Plant response rating, Crabgrass",crabgrass; [13],0
same,"Plant response rating, Crabgrass",crabgrass; [1],3
same,Crabgrass plant response rating,crabgrass; [2],6
same,"Plant response rating, Crabgrass",crabgrass; [3],6
same,"Plant response rating, Crabgrass",crabgrass; [4],8
same,Crabgrass plant response rating,crabgrass; [5],10
same,Crabgrass plant response rating,crabgrass; [6],10
same,Crabgrass plant response rating,crabgrass; [15],0
same,"Plant response rating, Giant foxtail",giant foxtail; [13],0
same,"Plant response rating, Giant foxtail",giant foxtail; [1],8
same,Giant foxtail plant response rating,giant foxtail; [2],9
same,"Plant response rating, Giant foxtail",giant foxtail; [3],7
same,"Plant response rating, Giant foxtail",giant foxtail; [4],8
same,Giant foxtail plant response rating,giant foxtail; [5],10
same,Giant foxtail plant response rating,giant foxtail; [6],10
same,Giant foxtail plant response rating,giant foxtail; [15],0
same,"Plant response rating, B. signalgrass",surinam grass; [13],0
same,"Plant response rating, B. signalgrass",surinam grass; [1],0
same,B. signalgrass plant response rating,surinam grass; [2],2
same,"Plant response rating, B. signalgrass",surinam grass; [3],0
same,"Plant response rating, B. signalgrass",surinam grass; [4],3
same,B. signalgrass plant response rating,surinam grass; [14],6
same,B. signalgrass plant response rating,"surinam grass; Preemergence, Rate 500 g/ha, scale of 0 to 10 where 0 is no effect and 10 is complete control",6
same,B. signalgrass plant response rating,surinam grass; [15],0
same,"Plant response rating, Cocklebur",cocklebur; [13],0
same,"Plant response rating, Cocklebur",cocklebur; [1],0
same,Cocklebur plant response rating,cocklebur; [2],0
same,"Plant response rating, Cocklebur",cocklebur; [3],0
same,"Plant response rating, Cocklebur",cocklebur; [4],0
same,Cocklebur plant response rating,cocklebur; [5],0
same,Cocklebur plant response rating,cocklebur; [6],0
same,Cocklebur plant response rating,cocklebur; [15],0
